In patent US8865634B2, “4-alkyl substituted pyridines as odiferous substances” (Symrise AG, priority 2008, dated 2014):

Experiments:
[1] = Olfactory description of the individual compounds; conditions: pure compound
From the text: The olfactory descriptions of the individual compounds are as follows: […]

[2] = Diffusivity test (Petri dish 50 cm in front of the test subject, intensity rating); conditions: scale 1-9 (1=odorless to 9=very strong); 0.5 g in Petri dish, 50 cm from test subject, 20-25° C.
From the text: 0.5 g of the odiferous substances to be tested are each weighed in a Petri dish and sealed with the lid. The Petri dish is placed 50 cm in front of the test subject (the distance is marked on the table before the test commences).
The lid is then removed from the Petri dish and a stopwatch is simultaneously started by the test subject. The test subject stops the time immediately they perceive the odor. The test subject assesses the intensity of the sample on a scale of 1=odorless to 9=very strong. The stop time and the intensity are noted on the test sheet.
Each sample is evaluated by the test subject three times. In order to be certain that the result is not distorted, all windows and doors must be shut. The room is at normal temperature (20-25° C.). […] As a rule a minimum of 8 participants evaluate the sample.

[3] = Threshold value in air (odor perception threshold, sample bag with gas stream); conditions: equilibrium approximately 18 hours at ambient temperature; as a rule 8 test subjects
Experimental: The odiferous substance to be tested is evaporated in a defined sampling system and then assessed sensorially with regard to the perception threshold. The sampling system comprises the sample bag and a gas stream outlet. A defined quantity of the desired odiferous substance is squirted into the bag. The equilibrium time after filling with the sample is approximately 18 hours at ambient temperature; then the content of the bag is presented to the test subject by means of a constant gas stream. At the first discernable olfactory impression a response button is pressed. The odor threshold concentration is achieved when in the next dilution stage the olfactory impression is confirmed by repeated pressing of the response button. The concentration of the sample is increased between the previous and the next samples by a factor of 2.
The assessment of the threshold value in air is measured against a standard and as a rule 8 test subjects take part in the sensorial evaluation. The participants have no anosmia in respect of the samples to be investigated.

[4] = Olfactory evaluation of perfume oils with and without 4-decyl pyridine dosed into products
From the text: The composition with 4-n-decyl pyridine also has a fresher radiance overall.
Furthermore, the composition as a whole appears to be more harmonious and rounded.

Row | SMILES | olfactory description [1] | Diffusivity [2] | Threshold value in air [3] | further results
1 | CCCCCCCCCCCCc1ccncc1 [4-n-dodecyl pyridine] | Marine (watery) note, reminiscent of seaweed |  |  | 
2 | CCCCCCCCCc1ccncc1 [4-n-nonyl pyridine, 4-nonyl pyridine] | distinctive odor of the sea |  |  | 
3 | CCCCCCCCc1ccncc1 [4-n-octyl pyridine, 4-octyl pyridine] | very intensive marine (watery) odor with an ozone note |  |  | 
4 | CC(C)=CCCC(C)=CCCc1ccncc1 [Maritima ®, 4-(4,8-dimethyl-3,7-nonadienyl)-pyridine, reference compound] |  | 3.4 | 0.155 ppm | 
5 | CCCCCCCCCCCc1ccncc1 [4-n-undecyl pyridine, 4-undecyl pyridine] | marine character, combining an aldehyde-like note with slight echoes of mandarin |  |  | 
6 | CCCCCCCCCCc1ccncc1 [4-decyl pyridine] | valuable marine character prized and sought after by perfumists | 8.1 | 0.014 ppm | olfactory effect in perfume oil ([4]; 0.001% in perfume oil F2, 12% perfume oil in ethanol (fine fragrance)): intensifies the transparent fresh head note; olfactory effect in perfume oil ([4]; 0.005% in perfume oil A2, 0.3% perfume oil in all-purpose cleaner, versus A1): extreme intensification of the marine-mossy note; olfactory effect in perfume oil (booster effect) ([4]; 0.01% in perfume oil P2, 0.3% perfume oil in washing powder, versus P1): intensification of the lily of the valley and the fruity notes to a quite exceptional extent; olfactory effect in perfume oil ([4]; 0.02% in perfume oil D2, 0.5% perfume oil in shower gel): boosts (intensifies) the watery-fresh head note of the perfume oil composition; olfactory effect in perfume oil ([4]; 0.05% in perfume oil S2, 0.5% perfume oil in shampoo): intensifies (at a dosing of 0.5% of the perfume oil in the shampoo) the fruity peach/apricot character; olfactory effect in perfume oil ([4]; 0.07% in perfume oil C2, 1.2% perfume oil in soap, versus C1): enormous intensification of the fresh characteristic; olfactory effect in perfume oil ([4]; 1.0% in perfume oil W2, 0.6% perfume oil in fabric conditioner): greatly increases the sought-after violet character
